Reference: patent publication US9828396B2, “Alkyne compounds for treatment of complement mediated disorders” (Achillion Pharmaceuticals, Inc., priority 2014, dated 2017)

Target: Human factor D (Homo sapiens (Human), UniProt P00746)
Assay: Human Factor D Assay
Format: biochemical
Details: Human factor D 80 nM, substrate Z-L-Lys-SBzl, assay of Example 12
Procedure: Example 12. Human Factor D Assay
Human factor D (purified from human serum, Complement Technology, Inc.) at 80 nM final concentration is incubated with test compound at various concentrations for 5 minutes at room temperature in 50 mM Tris, 1M NaCl, pH 7.5. A synthetic substrate Z-L-Lys-SBzl and DTNB (Ellman's reagent) are added to final concentrations of 100 μM each. The increase in color is recorded at OD405 nm in a microplate in kinetic mode over 30 minutes with 30 second time points in a spectrofluorimeter. IC50 values are calculated by non-linear regression from the percentage of inhibition of complement factor D activity as a function of test compound concentration.

Sequence of Human factor D (P00746 26-253): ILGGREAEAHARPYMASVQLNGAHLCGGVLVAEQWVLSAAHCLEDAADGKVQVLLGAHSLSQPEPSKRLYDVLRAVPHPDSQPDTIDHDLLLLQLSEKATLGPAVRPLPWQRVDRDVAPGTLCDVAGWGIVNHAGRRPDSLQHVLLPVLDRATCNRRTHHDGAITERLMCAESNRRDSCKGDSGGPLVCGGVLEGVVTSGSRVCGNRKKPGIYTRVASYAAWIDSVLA

Row | Structure (SMILES) | IC50 [µM]
1 | NC(=O)c1nn(CC(=O)N2C[C@H](F)C[C@H]2C(=O)Nc2cncc(Br)c2)c2ccc(C#Cc3ncc(F)cn3)cc12 [Compound 68, 1-(2-((2S,4R)-2-(5-bromopyridin-3-ylcarbamoyl)-4-fluoropyrrolidin-1-yl)-2-oxoethyl)-5-((5-fluoropyrimidin-2-yl)ethynyl)-1H-indazole-3-carboxamide] | < 1
2 | Cc1cnc(C#Cc2ccc3c(c2)c(C(N)=O)nn3CC(=O)N2C[C@H](F)C[C@H]2C(=O)Nc2cccc(Br)n2)nc1 [Compound 91, 1-(2-((2S,4R)-2-(6-bromopyridin-2-ylcarbamoyl)-4-fluoropyrrolidin-1-yl)-2-oxoethyl)-5-((5-methylpyrimidin-2-yl)ethynyl)-1H-indazole-3-carboxamide] | < 1
3 | NC(=O)c1nn(CC(=O)N2[C@@H]3CC(F)(F)[C@@H]3C[C@H]2C(=O)NCc2cccc(Cl)c2F)c2ccc(C#Cc3ncccn3)cc12 [Compound 51, 1-(2-((1R,3S,5R)-3-(3-chloro-2-fluorobenzylcarbamoyl)-6,6-difluoro-2-azabicyclo[3.2.0]heptan-2-yl)-2-oxoethyl)-5-(pyrimidin-2-ylethynyl)-1H-indazole-3-carboxamide] | 1 to 10
4 | NC(=O)c1nn(CC(=O)N2[C@@H]3C[C@@H]3C[C@H]2C(=O)Nc2cccc(Br)n2)c2ccc(C#Cc3ccc(F)cn3)cc12 [Compound 58, 1-(2-((1R,3S,5R)-3-(6-bromopyridin-2-ylcarbamoyl)-2-azabicyclo[3.1.0]hexan-2-yl)-2-oxoethyl)-5-((5-fluoropyridin-2-yl)ethynyl)-1H-indazole-3-carboxamide] | < 1
5 | NC(=O)c1nn(CC(=O)N2[C@@H]3C[C@@H]3C[C@H]2C(=O)Nc2cccc(F)n2)c2ccc(C#Cc3ncccn3)cc12 [Compound 62, 1-(2-((1R,3S,5R)-3-(6-fluoropyridin-2-ylcarbamoyl)-2-azabicyclo[3.1.0]hexan-2-yl)-2-oxoethyl)-5-(pyrimidin-2-ylethynyl)-1H-indazole-3-carboxamide] | < 1
6 | NC(=O)c1nn(CC(=O)N2C[C@H](F)C[C@H]2C(=O)Nc2cccc(-c3ncccc3Cl)c2F)c2ccc(C#Cc3ncccn3)cc12 [Compound 28, 1-(2-((2S,4R)-2-(3-(3-chloropyridin-2-yl)-2-fluorophenylcarbamoyl)-4-fluoropyrrolidin-1-yl)-2-oxoethyl)-5-(pyrimidin-2-ylethynyl)-1H-indazole-3-carboxamide] | < 1
7 | NC(=O)c1nn(CC(=O)N2C[C@H](F)C[C@H]2C(=O)Nc2cccc(-c3ccccc3Cl)c2F)c2ccc(C#Cc3cnccn3)cc12 [Compound 83, 1-(2-((2S,4R)-2-(2′-chloro-2-fluorobiphenyl-3-ylcarbamoyl)-4-fluoropyrrolidin-1-yl)-2-oxoethyl)-5-(pyrazin-2-ylethynyl)-1H-indazole-3-carboxamide] | < 1
8 | CC(=O)c1nn(CC(=O)N2C[C@H](F)C[C@H]2C(=O)Nc2cccc(Br)n2)c2ccc(C#Cc3ncc(F)cn3)cc12 [Compound 90, (2S,4R)-1-(2-(3-acetyl-5-((5-fluoropyrimidin-2-yl)ethynyl)-1H-indazol-1-yl)acetyl)-N-(6-bromopyridin-2-yl)-4-fluoropyrrolidine-2-carboxamide] | < 1
9 | NC(=O)c1nn(CC(=O)N2C[C@H](F)C[C@H]2C(=O)NCc2cccc(Cl)c2F)c2ccc(C#Cc3cn[nH]c3)cc12 [Compound 29, 5-((1H-pyrazol-4-yl)ethynyl)-1-(2-((2S,4R)-2-(3-chloro-2-fluorobenzylcarbamoyl)-4-fluoropyrrolidin-1-yl)-2-oxoethyl)-1H-indazole-3-carboxamide] | < 1
10 | NC(=O)c1nn(CC(=O)N2C[C@H](F)C[C@H]2C(=O)Nc2cc(C(F)(F)F)cc(Cl)n2)c2ccc(C#Cc3ncc(F)cn3)cc12 [Compound 74, 1-(2-((2S,4R)-2-(6-chloro-4-(trifluoromethyl)pyridin-2-ylcarbamoyl)-4-fluoropyrrolidin-1-yl)-2-oxoethyl)-5-((5-fluoropyrimidin-2-yl)ethynyl)-1H-indazole-3-carboxamide] | < 1
11 | NC(=O)c1nn(CC(=O)N2C[C@H](F)C[C@H]2C(=O)Nc2ccc(C(F)(F)F)c(Cl)n2)c2ccc(C#Cc3ncc(F)cn3)cc12 [Compound 76, 1-(2-((2S,4R)-2-(6-chloro-5-(trifluoromethyl)pyridin-2-ylcarbamoyl)-4-fluoropyrrolidin-1-yl)-2-oxoethyl)-5-((5-fluoropyrimidin-2-yl)ethynyl)-1H-indazole-3-carboxamide] | < 1
12 | NC(=O)c1nn(CC(=O)N2C[C@H](F)C[C@H]2C(=O)Nc2cccc(Cl)c2F)c2ccc(C#Cc3ncccn3)cc12 [Compound 25, 1-(2-((2S,4R)-2-(3-chloro-2-fluorophenylcarbamoyl)-4-fluoropyrrolidin-1-yl)-2-oxoethyl)-5-(pyrimidin-2-ylethynyl)-1H-indazole-3-carboxamide] | < 1
13 | NC(=O)c1nn(CC(=O)N2C[C@H](F)C[C@H]2C(=O)Nc2cccc(-c3ccccc3Cl)n2)c2ccc(C#Cc3ncccn3)cc12 [Compound 47, 1-(2-((2S,4R)-2-(6-(2-chlorophenyl)pyridin-2-ylcarbamoyl)-4-fluoropyrrolidin-1-yl)-2-oxoethyl)-5-(pyrimidin-2-ylethynyl)-1H-indazole-3-carboxamide] | < 1
14 | CC(=O)c1cn(CC(=O)N2C[C@H](F)C[C@H]2C(=O)NCc2cccc(Cl)c2F)c2ccc(C#Cc3c[nH]nc3C#N)cc12 [Compound 24, (2S,4R)-1-(2-(3-acetyl-5-((3-cyano-1H-pyrazol-4-yl)ethynyl)-1H-indol-1-yl)acetyl)-N-(3-chloro-2-fluorobenzyl)-4-fluoropyrrolidine-2-carboxamide] | < 1
15 | NC(=O)c1nn(CC(=O)N2C[C@H](F)C[C@H]2C(=O)N2CCc3c([nH]c4ccccc34)C2)c2ccc(C#Cc3ncccn3)cc12 [Compound 31, 1-(2-((2S,4R)-4-fluoro-2-(2,3,4,9-tetrahydro-1H-pyrido[3,4-b]indole-2-carbonyl)pyrrolidin-1-yl)-2-oxoethyl)-5-(pyrimidin-2-ylethynyl)-1H-indazole-3-carboxamide] | > 10
16 | NC(=O)c1nn(CC(=O)N2C[C@H](F)C[C@H]2C(=O)NCc2cccc(Cl)c2F)c2cnc(C#Cc3ccccc3)cc12 [Compound 67, 1-(2-((2S,4R)-2-(3-chloro-2-fluorobenzylcarbamoyl)-4-fluoropyrrolidin-1-yl)-2-oxoethyl)-5-(phenylethynyl)-1H-pyrazolo[3,4-c]pyridine-3-carboxamide] | < 1
17 | CC(=O)c1cn(CC(=O)N2C[C@H](F)C[C@H]2C(=O)NCc2cccc(Cl)c2F)c2ccc(C#Cc3cncnc3)cc12 [Compound 16, (2S,4R)-1-(2-(3-acetyl-5-(pyrimidin-5-ylethynyl)-1H-indol-1-yl)acetyl)-N-(3-chloro-2-fluorobenzyl)-4-fluoropyrrolidine-2-carboxamide] | < 1
18 | NC(=O)c1nn(CC(=O)N2[C@@H]3C[C@@H]3C[C@H]2C(=O)Nc2cccc(Br)n2)c2ccc(C#Cc3cc(F)ccn3)cc12 [Compound 65, 1-(2-((1R,3S,5R)-3-(6-bromopyridin-2-ylcarbamoyl)-2-azabicyclo[3.1.0]hexan-2-yl)-2-oxoethyl)-5-((4-fluoropyridin-2-yl)ethynyl)-1H-indazole-3-carboxamide] | < 1
19 | NC(=O)c1nn(CC(=O)N2C[C@H](F)C[C@H]2C(=O)Nc2cccc(C(F)(F)F)n2)c2ccc(C#Cc3ncccn3)cc12 [Compound 33, 1-(2-((2S,4R)-4-fluoro-2-(6-(trifluoromethyl)pyridin-2-ylcarbamoyl)pyrrolidin-1-yl)-2-oxoethyl)-5-(pyrimidin-2-ylethynyl)-1H-indazole-3-carboxamide] | < 1
20 | NC(=O)c1nn(CC(=O)N2C[C@H](F)C[C@H]2C(=O)Nc2cccc(-c3cn[nH]c3)n2)c2ccc(C#Cc3ncccn3)cc12 [Compound 50, 1-(2-((2S,4R)-2-(6-(1H-pyrazol-4-yl)pyridin-2-ylcarbamoyl)-4-fluoropyrrolidin-1-yl)-2-oxoethyl)-5-(pyrimidin-2-ylethynyl)-1H-indazole-3-carboxamide] | < 1
21 | NC(=O)c1nn(CC(=O)N2[C@@H]3C[C@@H]3C[C@H]2C(=O)Nc2ccn(CC(F)(F)F)n2)c2ccc(C#Cc3ncc(F)cn3)cc12 [Compound 72, 5-((5-fluoropyrimidin-2-yl)ethynyl)-1-(2-oxo-2-((1R,3S,5R)-3-(1-(2,2,2-trifluoroethyl)-1H-pyrazol-3-ylcarbamoyl)-2-azabicyclo[3.1.0]hexan-2-yl)ethyl)-1H-indazole-3-carboxamide] | < 1
22 | NC(=O)c1nn(CC(=O)N2C[C@H](F)C[C@H]2C(=O)Nc2cccc(-c3ccc(F)cc3Cl)c2F)c2ccc(C#Cc3ncccn3)cc12 [Compound 49, 1-(2-((2S,4R)-2-(2′-chloro-2,4′-difluorobiphenyl-3-ylcarbamoyl)-4-fluoropyrrolidin-1-yl)-2-oxoethyl)-5-(pyrimidin-2-ylethynyl)-1H-indazole-3-carboxamide] | < 1
23 | NC(=O)c1nn(CC(=O)N2CC[C@@H](O)[C@H]2C(=O)NCc2cccc(Cl)c2F)c2ccc(C#Cc3ncccn3)cc12 [Compound 52, 1-(2-((2S,3R)-2-(3-chloro-2-fluorobenzylcarbamoyl)-3-hydroxypyrrolidin-1-yl)-2-oxoethyl)-5-(pyrimidin-2-ylethynyl)-1H-indazole-3-carboxamide] | < 1
24 | NC(=O)c1nn(CC(=O)N2C[C@H](F)C[C@H]2C(=O)NCc2cccc(Cl)c2F)c2cnc(C#Cc3ncccn3)cc12 [Compound 32, 1-(2-((2S,4R)-2-(3-chloro-2-fluorobenzylcarbamoyl)-4-fluoropyrrolidin-1-yl)-2-oxoethyl)-5-(pyrimidin-2-ylethynyl)-1H-pyrazolo[3,4-c]pyridine-3-carboxamide] | < 1
